Data as given in patent publication US8101605B2, “SHIP1 modulators and methods related thereto” (Aquinox Pharmaceuticals Inc., priority 2009, dated 2012).

Test system: carrageenan-induced paw edema
Assay: Carrageenan paw edema in mice
Assay type: in vivo
Conditions: oral, doses less than 30 mg/kg, 4 hours after carrageenan
Experimental: The activity of representative compounds on carrageenan paw edema in mice was evaluated according to the procedures disclosed by Winter et al., Proc Soc Exp Biol Med 111, 544-547, 1962, which is incorporated herein by reference in its entirety. To induce edema in the paw, test compounds were administered orally one hour before intraplantar injection of the right hind paw with carrageenan (50 μL of 1% suspension). Hind paw edema, as a measure of inflammation, was recorded using a plethysmometer (Ugo Basile, Italy) 4 hours after λ-carrageenan administration.

With Cc1cc(O)cc2c1[C@]1(C)CC[C@H]3C(C)(C)CCC[C@]3(C)[C@H]1CO2 [Compound No. 6, (1R,10R,11S,16S)-1,3,11,15,15-pentamethyl-8-oxatetracyclo[8.8.0.0^2,7.0^11,16]octadeca-2,4,6-trien-5-ol] the “inhibition of carrageenan-induced paw edema” value was 24%.
